Assay results as given in ChEMBL document CHEMBL4627353, “Synthesis of novel dual target inhibitors of PARP and HSP90 and their antitumor activities” (Bioorg Med Chem, 2020).
Activity calls are given as the source filed them. The rule behind the calls is not given here.

How the values were obtained:
HCC1937 [1] = test: Antiproliferative activity against BRCA1-deficient human HCC1937 cells after 48 hrs by MTT assay; format: functional, cell-based; details: HCC1937, 48 h
SK-BR-3 = test: Antiproliferative activity against BRCA-proficient human SKBR3 cells after 48 hrs by MTT assay; format: functional, cell-based; details: SK-BR-3, 48 h
CAPAN-1 = test: Antiproliferative activity against BRCA2-deficient human Capan1 cells after 48 hrs by MTT assay; format: functional, cell-based; details: CAPAN-1, 48 h
MCF7 [2] = test: Antiproliferative activity against BRCA-proficient human MCF7 cells after 48 hrs by MTT assay; format: functional, cell-based; details: MCF7, 48 h
MX1 = test: Antiproliferative activity against BRCA1-deficient human MX1 cells after 48 hrs by MTT assay; format: functional, cell-based; details: MX1, 48 h
MDA-MB-231 = test: Antiproliferative activity against BRCA-proficient human MDA-MB-231 cells after 48 hrs by MTT assay; format: functional, cell-based; details: MDA-MB-231, 48 h
Heat shock protein HSP90 [3] = molecular target: T1, Heat shock protein HSP90 (Homo sapiens, UniProt P07900+P08238)
Description: Binding affinity to HSP90 (unknown origin) assessed as quenching constant by Stern-Volmer plot analysis

Heat shock protein HSP90 [4] = molecular target: T1, Heat shock protein HSP90; remark: listed apart in the source
Description: Binding affinity to HSP90 (unknown origin) by Line weaver-Burk plot analysis

HCC1937 [5] = test: Potency index, ratio of compound IC50 to Olaparib IC50 for antiproliferative activity against human HCC1937 cells; format: functional
Heat shock protein HSP90 [6] = molecular target: T1, Heat shock protein HSP90; remark: listed apart in the source
Description: Binding affinity to HSP90 (unknown origin) assessed as Stern-Volmer quenching constant by Stern-Volmer plot analysis

Heat shock protein HSP90 [7] = molecular target: T1, Heat shock protein HSP90; test: Binding affinity to HSP90 (unknown origin) by fluorescence quenching method; format: protein assay
MCF7 [8] = test: Inhibition of PARP in human MCF7 cells assessed as down regulation of PAR at 1 to 100 uM in presence of adriamycin by western blotting analysis; format: cell-based
Heat shock protein HSP90 [9] = molecular target: T1, Heat shock protein HSP90; test: Inhibition of HSP90 (unknown origin) by fluorescence quenching method; format: protein assay
Heat shock protein HSP90 [10] = molecular target: T1, Heat shock protein HSP90; test: Inhibition of HSP90 in human MDA-MB-231 cells assessed as down regulation of BRCA1 protein expression at 1 to 100 uM in presence of adriamycin by western blotting analysis; format: cell-based
MCF7 [11] = test: Potency index, ratio of compound IC50 to Olaparib IC50 for antiproliferative activity against human MCF7 cells; format: functional

Row | Structure (SMILES) | IC50 (HCC1937 [1]) [µM] | IC50 (SK-BR-3) [µM] | IC50 (CAPAN-1) [µM] | IC50 (MCF7 [2]) [µM] | IC50 (MX1) [µM] | IC50 (MDA-MB-231) [µM] | Kq (Heat shock protein HSP90 [3]) [×10¹² L/mol/s] | Ka (Heat shock protein HSP90 [4]) [×10⁵ L/mol] | Ratio IC50 (HCC1937 [5]) | KSV (Heat shock protein HSP90 [6]) [×10⁴ L/mol] | Kd (Heat shock protein HSP90 [7]) [µM] | inhibition (MCF7 [8]) | IC50 (Heat shock protein HSP90 [9]) [µM] | inhibition (Heat shock protein HSP90 [10]) | Ratio IC50 (MCF7 [11])
1 | O=C1/C(=C/c2ccc(F)cc2)CN(C(=O)c2cc(Cc3n[nH]c(=O)c4ccccc34)ccc2F)C/C1=C\c1ccc(F)cc1 | 36.1 | > 200 | > 200 | 173 | > 200 | > 200 | – | – | – | – | – | – | – | – | –
2 | O=C1/C(=C/c2ccccc2O)CN(C(=O)c2cc(Cc3n[nH]c(=O)c4ccccc34)ccc2F)C/C1=C\c1ccccc1O | > 200 | > 200 | > 200 | > 200 | 29.2 | > 200 | – | – | – | – | – | – | – | – | –
3 | COc1cc(/C=C2\CN(C(=O)c3cc(Cc4n[nH]c(=O)c5ccccc45)ccc3F)C/C(=C\c3cc(OC)c(OC)c(OC)c3)C2=O)cc(OC)c1OC | 65.3 | > 200 | 118 | > 200 | 34.6 | > 200 | – | – | – | – | – | – | – | – | –
4 | O=C1/C(=C/c2ccccc2F)CN(C(=O)c2cc(Cc3n[nH]c(=O)c4ccccc34)ccc2F)C/C1=C\c1ccccc1F | 16.1 | > 200 | 2.02 | 2.05 | 3.62 | 7.63 | – | – | – | – | – | – | – | – | –
5 | O=C1/C(=C/c2ccc3c(c2)OCO3)CN(C(=O)c2cc(Cc3n[nH]c(=O)c4ccccc34)ccc2F)C/C1=C\c1ccc2c(c1)OCO2 | 44.7 | > 200 | 32 | 25.8 | 13.9 | 21.1 | – | – | – | – | – | – | – | – | –
6 | O=C1/C(=C/c2cccnc2)CN(C(=O)c2cc(Cc3n[nH]c(=O)c4ccccc34)ccc2F)C/C1=C\c1cccnc1 | 5.3 | 15.9 | 82.8 | > 200 | 2 | 7.6 | 4.43 | 4.89 | 40 | 3.58 | 28.257 | Active | – | – | –
7 | O=C1/C(=C/c2ccncc2)CN(C(=O)c2cc(Cc3n[nH]c(=O)c4ccccc34)ccc2F)C/C1=C\c1ccncc1 | 2.72 | 2.53 | 0.202 | 0.97 | 0.1 | 4.38 | – | – | – | – | 39.975 | Active | 0.97 | Active | 200
8 | O=C1/C(=C/c2ccc(Cl)cc2)CN(C(=O)c2cc(Cc3n[nH]c(=O)c4ccccc34)ccc2F)C/C1=C\c1ccc(Cl)cc1 | 3.84 | > 200 | 1.78 | 1.21 | 4.23 | 8 | – | – | – | – | – | – | – | – | –
9 | O=C1CCN(C(=O)c2cc(Cc3n[nH]c(=O)c4ccccc34)ccc2F)CC1 | > 200 | > 200 | > 200 | > 200 | > 200 | > 200 | – | – | – | – | – | – | – | – | –
10 | O=C(c1cc(Cc2n[nH]c(=O)c3ccccc23)ccc1F)N1CCN(C(=O)C2CC2)CC1 [OLAPARIB] | > 200 | 232 | 83.1 | > 200 | 35.8 | > 200 | – | – | – | – | – | – | – | – | –
11 | O=C1/C(=C/c2ccccn2)CN(C(=O)c2cc(Cc3n[nH]c(=O)c4ccccc34)ccc2F)C/C1=C\c1ccccn1 | 2.88 | 2.83 | 37.3 | 1.47 | 0.1 | 0.75 | 4.32 | 4.88 | – | 3.48 | 29.569 | Active | – | – | 200
12 | O=C1/C(=C/c2cccc(F)c2)CN(C(=O)c2cc(Cc3n[nH]c(=O)c4ccccc34)ccc2F)C/C1=C\c1cccc(F)c1 | 10.6 | > 200 | 1.68 | 1.46 | 2.39 | 5.17 | – | – | – | – | – | – | – | – | –
